Laboratory results reported in patent publication US10501449B2 (priority 2018, dated 2019).
Like-named read-outs stand apart in the source and are kept apart here.

How the values were obtained:
[1] = target: T1, hROMK (human Kir1.1) (Homo sapiens (Human), UniProt P48048); assay: cell-based; format: cell-based; details: whole-cell manual patch clamp, CHO T-Rex hROMK stable cell line, voltage step to -120 mV, Ba2+-subtracted hROMK current; read-out: ROMK EP IC50
Method: ROMK Manual Patch Clamp Assay
Cell culture conditions: Cells were maintained in conditions similar to those for Thallium flux assay. hROMK channel expression was induced by adding 0.6 μg/ml of Doxycycline 16-24 hrs prior to the experiments. On the day of experiment, the cells were dissociated using Versene, resuspended in growth media and plated onto coverslips 15 minutes prior to use.
Electrophysiology: The coverslip plated with cells was placed in the experiment chamber perfused with bath solution composed of (in mM): 135 NaCl, 5 KCl, 2 CaCl2, 1 MgCl2, 10 HEPES, 5 Glucose (pH 7.4). Patch pipettes with resistance between 2-5 Megaohms, when filled with a solution containing (in mM): 135 KCl, 1 EGTA, 1 MgCl2, 10 HEPES, 2 Na2ATP (pH 7.3), were used to form gigaseals. The cells were voltage clamped at −75 mV in whole-cell configuration using an Axopatch 200b or Multiclamp 700b (Molecular Devices) amplifier controlled by pClamp Software (Molecular Devices). The current was recorded by applying a voltage step to −120 mV every 10 seconds. […] At the end of the experiment, the cells were perfused with bath solution containing 2 mM Ba^2+ to isolate the contribution of hROMK current.
Data analysis: Raw current values (5 traces each for control, different compound concentration and Ba^2+ treatment groups) were exported from Clampfit into Microsoft Excel where the current remaining after application of Ba^2+ was subtracted from raw current to obtain hROMK specific current.

[2] = target: T1, hROMK (human Kir1.1); assay: cell-based; details: CHO T-Rex hROMK stable cell line; thallium flux; 10-point concentration response curve; read-out: Human ROMK Th Flux IC50
Method: Solutions and reagents: Thallium flux assay was performed using FluxOR kit (F10017, Life Technologies). Loading buffer, assay buffer and stimulus buffer were prepared using kit components. HBSS (Hank's balanced salt solution, Cat#14025-092) was purchased separately from Life Technologies.
To prepare 10 ml of loading buffer: 10 μl of FluxOR dye (reconstituted in DMSO) was first added to 100 μl of powerload concentrate and this mix along with 100 μl of Probenicid (100×) was then added to 9.79 ml of HBSS. Assay buffer (10 ml) was prepared by addition of 2 ml of FluxOR chloride free buffer (5×), 100 μl of Probenicid (100×), and 0.2 ml of Ouabain (13.77 mM) to 7.7 ml of deionized water. Stimulus buffer was composed of 15 mM Tl2SO4, 0.75 mM K2SO4 in FluxOR chloride free buffer (diluted to 1× using deionized water). The final concentration of Tl2SO4 and K2SO4 in the assay plate was 3 mM and 0.15 mM, respectively.
Plating and induction of cells: The CHO T-Rex hROMK (human Kir1.1) stable cell line was maintained in Ham's F12 media supplemented with 10% FBS, 1% Penicillin-Streptomycin, 500 μg/ml Zeocin and 10 μg/ml Blasticidin at 37° C. in a 5% CO2 incubator. One day before the experiment, the cells were dissociated by incubation with Versene solution (15040-066, Life Technologies) for 10 minutes at 37° C. followed by addition of growth media. The cell suspension was centrifuged at 1200 rpm for 5 min. After discarding the supernatant, the cells were resuspended in fresh growth media and cell concentration was determined using a hemocytometer. Next, 0.5 μg/ml of Doxycycline was added to the cell suspension to induce hROMK channel expression and 50 μl (10,000 cells/well) of cell suspension was added to each well of a poly-D lysine coated 384 well black, optically clear bottom plate (6007718, Perkin Elmer). The assay plate was kept at 37° C. in a 5% CO2 incubator.
Assay protocol: On the day of experiment, media was removed and loading buffer was added (30 μl/well) to the assay plate. The cells were incubated in the loading buffer for 30 minutes at 37° C. The loading buffer was then replaced by assay buffer (30 μl/well) followed by addition of test compounds or controls. The cells were incubated with compounds for 30 minutes and the plate was then mounted on FlexStation (Molecular Devices) for fluorescence read out with excitation and emission wavelengths at 488 and 525 nm, respectively. Each well was read for 90 sec at 2 sec interval and the stimulus buffer was added after 20 seconds of baseline recording. The final DMSO concentration was either 0.5 or 1% in the assay plate. Positive and negative controls were defined by addition of DMSO or 3 μM of a standard ROMK inhibitor, respectively, to the wells instead of a test compound.
A 10-point concentration response curve was used to estimate the IC50 value of test compounds.

[3] = target: hERG channels (Homo sapiens (Human), UniProt Q12809); assay: hERG Manual Patch Clamp Assay; format: cell-based; details: human, HEK 293 cells stably expressing hERG channels, pH 7.4, 1 uM, read-out: hERG EP % Inh @ 1 uM
hERG channels, sequence (Q12809 whole entry): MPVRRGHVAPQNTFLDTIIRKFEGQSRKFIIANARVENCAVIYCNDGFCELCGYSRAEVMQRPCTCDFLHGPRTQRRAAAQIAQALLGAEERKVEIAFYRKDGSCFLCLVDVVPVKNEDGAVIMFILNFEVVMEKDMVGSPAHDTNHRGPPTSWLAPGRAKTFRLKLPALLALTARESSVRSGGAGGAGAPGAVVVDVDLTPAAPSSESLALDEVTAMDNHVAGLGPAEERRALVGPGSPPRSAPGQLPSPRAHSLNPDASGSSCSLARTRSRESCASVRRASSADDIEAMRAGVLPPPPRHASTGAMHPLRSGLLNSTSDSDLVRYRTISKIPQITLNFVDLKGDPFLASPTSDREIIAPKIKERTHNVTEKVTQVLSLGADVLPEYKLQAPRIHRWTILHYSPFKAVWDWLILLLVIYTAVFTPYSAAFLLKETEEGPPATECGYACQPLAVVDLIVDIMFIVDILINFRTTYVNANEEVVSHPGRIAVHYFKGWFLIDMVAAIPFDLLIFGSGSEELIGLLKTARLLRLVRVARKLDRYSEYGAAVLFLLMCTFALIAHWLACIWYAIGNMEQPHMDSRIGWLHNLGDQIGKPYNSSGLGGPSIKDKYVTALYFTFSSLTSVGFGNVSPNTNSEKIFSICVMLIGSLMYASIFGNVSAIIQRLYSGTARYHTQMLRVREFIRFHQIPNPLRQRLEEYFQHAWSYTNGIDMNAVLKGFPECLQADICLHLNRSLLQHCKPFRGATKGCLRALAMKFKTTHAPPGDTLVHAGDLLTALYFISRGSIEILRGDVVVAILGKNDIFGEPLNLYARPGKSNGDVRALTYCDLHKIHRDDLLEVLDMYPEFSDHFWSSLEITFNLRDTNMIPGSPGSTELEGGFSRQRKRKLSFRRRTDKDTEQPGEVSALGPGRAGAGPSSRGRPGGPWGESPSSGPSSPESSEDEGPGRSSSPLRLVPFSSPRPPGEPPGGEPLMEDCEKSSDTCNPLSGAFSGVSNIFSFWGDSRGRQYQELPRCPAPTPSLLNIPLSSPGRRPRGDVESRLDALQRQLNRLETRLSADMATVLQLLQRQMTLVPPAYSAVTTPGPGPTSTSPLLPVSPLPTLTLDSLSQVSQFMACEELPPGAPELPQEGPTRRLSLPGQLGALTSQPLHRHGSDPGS

T1 sequence (P48048 whole entry): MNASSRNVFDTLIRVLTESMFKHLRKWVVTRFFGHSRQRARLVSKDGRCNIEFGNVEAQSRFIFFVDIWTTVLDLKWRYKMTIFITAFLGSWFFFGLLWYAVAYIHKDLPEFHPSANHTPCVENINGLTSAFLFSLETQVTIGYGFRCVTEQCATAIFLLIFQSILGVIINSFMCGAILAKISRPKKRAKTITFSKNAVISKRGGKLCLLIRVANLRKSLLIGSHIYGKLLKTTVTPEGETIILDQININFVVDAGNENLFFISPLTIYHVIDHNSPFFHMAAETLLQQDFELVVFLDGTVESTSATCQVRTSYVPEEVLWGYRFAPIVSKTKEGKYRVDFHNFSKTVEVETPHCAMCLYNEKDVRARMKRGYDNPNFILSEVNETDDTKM

SMILES | IC50 [1] [µM] | IC50 [2] [µM] | inhibition at 1 µM [3] [%]
Cc1cc(-n2cc(CN3CC(c4ccc5c(c4C)COC5=O)NCC3C)cn2)ncc1C#N (single isomer, unassigned) [Example 244-II, 4-methyl-6-(4-((2-methyl-5-(4-methyl-1-oxo-1,3-dihydroisobenzofuran-5-yl)piperazin-1-yl)methyl)-1H-pyrazol-1-yl)nicotinonitrile] | 0.022 | 0.017 | 
Cc1c([C@@H]2CN(Cc3cn(-c4ccc5oc(=O)n(C)c5c4)nn3)CCN2)ccc2c1COC2=O [Example 61-I, (R)-3-methyl-5-(4-((3-(4-methyl-1-oxo-1,3-dihydroisobenzofuran-5-yl)piperazin-1-yl)methyl)-1H-1,2,3-triazol-1-yl)benzo[d]oxazol-2 (3H)-one] | 0.04 |  | 
COc1cc(-n2cnc(CN3C[C@@H](c4ccc5c(c4C)COC5=O)N[C@@H](C)C3)c2)ncc1C#N [Example 97-I, 4-methoxy-6-(4-(((3S,5R)-3-methyl-5-(4-methyl-1-oxo-1,3-dihydroisobenzofur-an-5-yl)piperazin-1-yl)methyl)-1H-imidazol-1-yl)nicotinonitrile] | 0.043 | 0.028 | 
Cc1cc(-n2cc(CN3C[C@@H](c4ccc5c(c4C)COC5=O)N[C@@H](C)C3)nn2)ncc1C#N [Example 106-I, 4-methyl-6-(4-(((3S,5R)-3-methyl-5-(4-methyl-1-oxo-1,3-dihydroisobenzofur-an-5-yl)piperazin-1-yl)methyl)-1H-1,2,3-triazol-1-yl)nicotinonitrile] | 0.01 |  | 0.98
COc1nn(-c2ncc(CN3CCN[C@H](c4ccc5c(c4C)COC5=O)C3)cn2)cc1C#N [Example 227-I, (R)-3-methoxy-1-(5-((3-(4-methyl-1-oxo-1,3-dihydroisobenzofuran-5-yl)piperazin-1-yl)methyl)pyrimidin-2-yl)-1H-pyrazole-4-carbonitrile] |  | 0.028 | 18
Cc1c([C@@H]2CN(Cc3cnc(-n4cc(C#N)c(C(F)F)n4)nc3)CCN2)ccc2c1COC2=O [Example 229-I, (R)-3-(difluoromethyl)-1-(5-((3-(4-methyl-1-oxo-1,3-dihydroisobenzofuran-5-yl)piperazin-1-yl)methyl)pyrimidin-2-yl)-1H-pyrazole-4-carbonitrile] |  | 0.021 | 25
Cc1cc(-n2cc(CN3CCN[C@H](c4ccc5c(c4C)COC5=O)C3)c(C(F)F)n2)ncc1C#N [Example 233-I, (R)-6-(3-(difluoromethyl)-4-((3-(4-methyl-1-oxo-1,3-dihydroisobenzofuran-5-yl)piperazin-1-yl)methyl)-1H-pyrazol-1-yl)-4-methylnicotinonitrile] |  | 0.022 | 31
Cc1cc(-n2cc(CN3CCN[C@H](c4ccc5c(c4C)COC5=O)C3)c(C3CC3)n2)ncc1C#N [Example 237-I, (R)-6-(3-cyclopropyl-4-((3-(4-methyl-1-oxo-1,3-dihydroisobenzofuran-5-yl)piperazin-1-yl)methyl)-1H-pyrazol-1-yl)-4-methylnicotinonitrile] |  | 0.069 | 37
Cc1cc(-n2cc(CN3CCN[C@H](c4ccc5c(c4)COC5=O)C3)cn2)ncc1C#N [Example 239-I, (R)-4-methyl-6-(4-((3-(1-oxo-1,3-dihydroisobenzofuran-5-yl)piperazin-1-yl)methyl)-1H-pyrazol-1-yl)nicotinonitrile] |  | 0.063 | 18
Cc1nn(-c2ccc(CN3CCN[C@H](c4ccc5c(c4C)COC5=O)C3)nc2)cc1C#N [Example 241-I, (R)-3-methyl-1-(6-((3-(4-methyl-1-oxo-1,3-dihydroisobenzofuran-5-yl)piperazin-1-yl)methyl)pyridin-3-yl)-1H-pyrazole-4-carbonitrile] |  | 0.041 | 18
Cc1cn(-c2ccc(CN3CCN[C@H](c4ccc5c(c4C)COC5=O)C3)cn2)nc1C#N [Example 242-I, (R)-4-methyl-1-(5-((3-(4-methyl-1-oxo-1,3-dihydroisobenzofuran-5-yl)piperazin-1-yl)methyl)pyridin-2-yl)-1H-pyrazole-3-carbonitrile] |  | 0.01 | 36
Cc1cn(-c2ncc(CN3CCN[C@H](c4ccc5c(c4C)COC5=O)C3)cn2)nc1C#N [Example 243-I, (R)-4-methyl-1-(5-((3-(4-methyl-1-oxo-1,3-dihydroisobenzofuran-5-yl)piperazin-1-yl)methyl)pyrimidin-2-yl)-1H-pyrazole-3-carbonitrile] |  | 0.013 | 9.8
Cc1cc(-n2cc(CN3CC[C@@H](O)[C@H](c4ccc5c(c4C)COC5=O)C3)c(C(F)F)n2)ncc1C#N [Example 245-I, 6-(3-(difluoromethyl)-4-(((3R,4R)-4-hydroxy-3-(4-methyl-1-oxo-1,3-dihydroisobenzofuran-5-yl)piperidin-1-yl)methyl)-1H-pyrazol-1-yl)-4-methylnicotinonitrile] |  | 0.018 | 17
Cc1c([C@@H]2CN(Cc3cnn(-c4cccc(N5CCOC5=O)n4)c3)C[C@H](C)N2)ccc2c1COC2=O [Example 249-I, 3-(6-(4-(((3S,5R)-3-methyl-5-(4-methyl-1-oxo-1,3-dihydroisobenzofuran-5-yl)piperazin-1-yl)methyl)-1H-pyrazol-1-yl)pyridin-2-yl)oxazolidin-2-one] |  | 0.12 | 9.1
Cc1cc(-n2cc(CN3CC[C@@H](O)[C@H](c4ccc5c(c4C)COC5=O)C3)n(C)c2=O)ncc1C#N [Example 250-I, 6-(4-(((3R,4R)-4-hydroxy-3-(4-methyl-1-oxo-1,3-dihydroisobenzofuran-5-yl)piperidin-1-yl)methyl)-3-methyl-2-oxo-2,3-dihydro-1H-imidazol-1-yl)-4-methylnicotinonitrile] |  | 0.027 | 20
Cc1cc(N2CCOC2=O)cc(-n2cc(CN3C[C@@H](c4ccc5c(c4C)COC5=O)N[C@@H](C)C3)cn2)n1 [Example 251-I, 3-(2-methyl-6-(4-(((3S,5R)-3-methyl-5-(4-methyl-1-oxo-1,3-dihydroisobenzofuran-5-yl)piperazin-1-yl)methyl)-1H-pyrazol-1-yl)pyridin-4-yl)oxazolidin-2-one] |  | 0.061 | 7.6
Cc1c([C@@H]2CN(Cc3cnn(-c4cccc(N(C)S(C)(=O)=O)n4)c3)C[C@H](C)N2)ccc2c1COC2=O [Example 252-I, N-methyl-N-(6-(4-(((3S,5R)-3-methyl-5-(4-methyl-1-oxo-1,3-dihydroisobenzofuran-5-yl)piperazin-1-yl)methyl)-1H-pyrazol-1-yl)pyridin-2-yl)methanesulfonamide] |  | 0.072 | 8.8
Cc1cc(-c2nc(CN3C[C@@H](c4ccc5c(c4C)COC5=O)N[C@@H](C)C3)no2)ncc1C#N [Example 259-I, 4-methyl-6-(3-(((3S,5R)-3-methyl-5-(4-methyl-1-oxo-1,3-dihydroisobenzofuran-5-yl)piperazin-1-yl)methyl)-1,2,4-oxadiazol-5-yl)nicotinonitrile] |  | 0.053 | 8.6
Cc1cc(-n2nnc(CN3C[C@@H](c4ccc5c(c4C)COC5=O)N[C@@H](C)C3)n2)ccc1C#N [Example 265-I, 2-methyl-4-(5-(((3S,5R)-3-methyl-5-(4-methyl-1-oxo-1,3-dihydroisobenzofuran-5-yl)piperazin-1-yl)methyl)-2H-tetrazol-2-yl)benzonitrile] |  | 0.022 | 20
Cc1cc(-n2cc(CN3C[C@@H](c4ccc5c(c4C)COC5=O)N[C@@H](C)C3)n(C)c2=O)ccn1 [Example 266-I, 3-methyl-4-(((3S,5R)-3-methyl-5-(4-methyl-1-oxo-1,3-dihydroisobenzofuran-5-yl)piperazin-1-yl)methyl)-1-(2-methylpyridin-4-yl)-1,3-dihydro-2H-imidazol-2-one] |  | 0.036 | 3.1
COc1cc(-c2cc(CN3C[C@@H](c4ccc5c(c4C)COC5=O)N[C@@H](C)C3)on2)ncc1C#N [Example 269-I, 4-methoxy-6-(5-(((3S,5R)-3-methyl-5-(4-methyl-1-oxo-1,3-dihydroisobenzofuran-5-yl)piperazin-1-yl)methyl)isoxazol-3-yl)nicotinonitrile] |  | 0.024 | 9.5
COc1cc(-n2nnc(CN3CC[C@@H](O)[C@H](c4ccc5c(c4C)COC5=O)C3)n2)ccc1C#N [Example 272-I, 4-(5-(((3R,4R)-4-hydroxy-3-(4-methyl-1-oxo-1,3-dihydroisobenzofuran-5-yl)piperidin-1-yl)methyl)-2H-tetrazol-2-yl)-2-methoxybenzonitrile] |  | 0.065 | 5.2
COc1cc(N2CC(CN3C[C@@H](c4ccc5c(c4C)COC5=O)N[C@@H](C)C3)N(C)C2=O)ncc1C#N (stereo partly drawn) [Example 274-I, 4-methoxy-6-(3-methyl-4-(((3S,5R)-3-methyl-5-(4-methyl-1-oxo-1,3-dihydroisobenzofuran-5-yl)piperazin-1-yl)methyl)-2-oxoimidazolidin-1-yl)nicotinonitrile] |  | 0.058 | 43
COc1cc(-n2cc(CN3C[C@@H](c4ccc5c(c4C)COC5=O)N[C@@H](C)C3)n(C)c2=O)ccn1 [Example 275-I, 1-(2-methoxypyridin-4-yl)-3-methyl-4-(((3S,5R)-3-methyl-5-(4-methyl-1-oxo-1,3-dihydroisobenzofuran-5-yl)piperazin-1-yl)methyl)-1,3-dihydro-2H-imidazol-2-one] |  | 0.042 | 8.4
